Source: patent publication US20210186982A1, “METHODS AND COMPOSITIONS FOR TREATING MELANOMA” (UNIVERSITE NICE SOPHIA ANTIPOLIS, priority 2017, published 2021)

Columns and labels:
[1] = tested on: A375; experiment: MTS conversion assay, melanoma cell proliferation; type: cell-based, human; conditions: 24 h; increasing doses up to 10 μM
Experimental: Cell proliferation was measured by a MTS conversion assay using the CellTiter 96® Aqueous Non-Radioactive Cell Proliferation kit (Promega, Madison Wis.) according to the manufacturer instructions. Cells were seeded in 96-well plates (5×10^4 cells/well) and treated with different reagents for the indicated times and incubated at 37° C. with MTS reagent. The optical density of each sample at 490 nm was determined with a Multiskan FC plate reader (Thermo Fisher Scientific, Waltham, Mass. USA).

[2] = Annexin-V-FITC/7-AAD flow cytometry, cell viability; type: cell-based; conditions: human, A375 cells; solvent 87%
Experimental: Cell death was evaluated by flow cytometry following staining with Annexin-V-FITC and 7-AAD (eBiosciences) as previously described 24.

[3] = molecular target: T1, UCHL5 (Homo sapiens, UniProt Q9Y5K5); experiment: DUB trap assay (HA-Ub-VS probe, anti-UCHL5 immunoblot); type: cell-based
T1 construct: 20 μg of protein extracts were incubated for 25 min at 37° C. with 2 μM HA-Ub-VS; endogenous in cells; host or cells: A375 melanoma cells; cell lysates
Experimental: (§1) Cells were harvested, washed with PBS and pellets were dried then freezed (−80° C.) and subsequently lysed in ice-cold buffer containing 50 mM Tris (pH 7.4), 5 mM MgCl2, 250 mM sucrose, 1 mM DTT, 2 mM ATP, and 1 mM PMSF and mild sonication. Lysates were cleared by centrifugation, and 20 μg of protein extracts were incubated for 25 min at 37° C. with 2 μM HA-Ub-VS (Boston Biochem, Cambridge, Mass.). After boiling in reducing sample buffer, labelled cell lysates were subjected to immunoblot analysis as described above using the indicated antibodies.

[4] = molecular target: T2, USP14 (Homo sapiens, UniProt P54578); experiment: DUB trap assay (HA-Ub-VS probe, anti-USP14 immunoblot); type: cell-based; conditions: A375 melanoma cells
T2 construct: endogenous in cells; host or cells: A375 (also 1205Lu, 501Mel, SKMel28, 451Lu) melanoma cells; cell lysates
Experimental: as §1

[5] = tested on: A375 and Me1501 cells; experiment: Cytotoxicity, cytotox green reagent (IncuCyte); type: cell-based, human; conditions: 72 h; compared with b-AP15
Experimental: FIG. 8. USP14 inhibition induces growth inhibition and cytotoxicity on melanoma cell lines. (A) Growth curve of A375 treated with 2 μM b-AP15, 2 μM VLX1570 or […] bortezomib (BTZ). Data were acquired in triplicate during 3 days using an IncuCyte Zoom. (B) and (C) Cytotoxic effects of USP14 inhibition on melanoma cells. A375 and Me1501 cells were treated with the indicated doses of b-AP15 or VLX1570, and stained with cytotox green reagent (100 nM). Cytotoxicity was monitored in triplicate for 72 h with an IncuCyte imaging system.

[6] = tested on: melanoma cell cultures; experiment: Cytotoxicity of b-AP15 in presence of NAC or pan-caspase inhibitor; type: cell-based, human; conditions: co-incubation with b-AP15
[7] = tested on: A375 cells; experiment: ROS production (CM-H2DCFDA, flow cytometry); type: cell-based, human; conditions: 5 mM NAC with 2 μM b-AP15
Experimental: ROS levels were measured using the redox-sensitive dye CM-H2DCFDA (Thermo Fischer Scientific). After treatment, cells were stained with 10 μM CM-H2DCFDA in PBS for 30 min at 37° C. Cells were washed with PBS and resuspended in PBS 5 mM EDTA/1% BSA. ROS production was analysed using a MACSQuant® Analyzer 10 cytometer (Miltenyi Biotech).

T1 sequence (Q9Y5K5 whole entry): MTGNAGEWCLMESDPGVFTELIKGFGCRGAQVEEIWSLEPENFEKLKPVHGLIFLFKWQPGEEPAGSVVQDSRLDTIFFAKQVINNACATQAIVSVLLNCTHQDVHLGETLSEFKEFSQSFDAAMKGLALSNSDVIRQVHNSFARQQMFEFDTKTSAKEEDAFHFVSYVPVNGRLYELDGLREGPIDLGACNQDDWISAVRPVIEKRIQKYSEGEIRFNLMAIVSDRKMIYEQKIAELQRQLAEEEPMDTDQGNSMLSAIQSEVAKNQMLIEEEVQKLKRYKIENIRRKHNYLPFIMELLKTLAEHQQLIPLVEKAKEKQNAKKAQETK
T2 sequence (P54578 whole entry): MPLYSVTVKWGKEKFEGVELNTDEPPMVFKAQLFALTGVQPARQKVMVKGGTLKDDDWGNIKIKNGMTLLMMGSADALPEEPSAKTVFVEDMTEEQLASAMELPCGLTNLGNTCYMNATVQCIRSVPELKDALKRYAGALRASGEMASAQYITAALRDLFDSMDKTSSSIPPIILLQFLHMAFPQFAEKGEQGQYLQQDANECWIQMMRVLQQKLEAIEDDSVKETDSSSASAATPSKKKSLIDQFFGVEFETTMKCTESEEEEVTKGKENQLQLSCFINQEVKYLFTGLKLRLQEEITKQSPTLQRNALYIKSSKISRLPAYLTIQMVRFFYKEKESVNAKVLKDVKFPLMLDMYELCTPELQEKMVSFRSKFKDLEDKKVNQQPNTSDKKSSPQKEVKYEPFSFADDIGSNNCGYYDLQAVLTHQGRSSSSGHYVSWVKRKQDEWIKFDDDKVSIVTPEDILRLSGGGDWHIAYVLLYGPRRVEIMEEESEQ

For `N#Cc1nc2c(nc1C#N)-c1ccc(Cl)cc1C2=O` [HBX41108], the “cell proliferation of A375 cells (MTS)” value [1] was “drastically decreased cell proliferation”.
`CN[C@@H]1C[C@H]2O[C@@](C)([C@@H]1OC)n1c3ccccc3c3c4c(c5c6ccccc6n2c5c31)C(=O)NC4` [staurosporine] showed a viability [2] of 56%.
With `C=CC(=O)N1CC/C(=C\c2ccc(F)c([N+](=O)[O-])c2)C(=O)/C(=C/c2ccc(F)c([N+](=O)[O-])c2)C1` [VLX1570] the “UCHL5 activity (UCHL5-Ub-HA) in A375 cells” value [3] was “not UCHL5”, the “USP14 activity (USP14-Ub-HA) in A375 cells” value [4] was “blocked USP14” and the melanoma cell death [5] was “induced to similar levels”.
For `CC(C)[C@H](NC(=O)c1ccc2ccccc2n1)C(=O)N[C@@H](CC(=O)O)C(=O)COc1c(F)cccc1F` [QVD-OPh], the “effect on cytotoxicity of b-AP15” value [6] was “did not prevent the cytotoxic action of b-AP15”.
With `CCC[C@H](NC(=O)/C(C#N)=C/c1cccc(Br)n1)c1ccccc1` [WP1130] the “cell proliferation of A375 cells (MTS)” value [1] was “drastically decreased cell proliferation”.
For `CC(=O)N[C@@H](CS)C(=O)O` [NAC, N-acetyl-L-cysteine], the “effect on b-AP15-triggered burst of ROS” value [7] was “inhibited” and the “effect on cytotoxicity of b-AP15” value [6] was “blocked”.
